What was measured:
Format in all cases: biochemical
Ret = target: T1, Ret (Homo sapiens, UniProt P07949); test: AlphaScreen kinase assay, Ret; details: read-out: IC50, activity toward kinase Ret
T1 construct: P1378.pET-SF BI-PTP RET H661-R1012 HIS; made in house
T1 sequence (P07949 with tags, fused parts or gaps): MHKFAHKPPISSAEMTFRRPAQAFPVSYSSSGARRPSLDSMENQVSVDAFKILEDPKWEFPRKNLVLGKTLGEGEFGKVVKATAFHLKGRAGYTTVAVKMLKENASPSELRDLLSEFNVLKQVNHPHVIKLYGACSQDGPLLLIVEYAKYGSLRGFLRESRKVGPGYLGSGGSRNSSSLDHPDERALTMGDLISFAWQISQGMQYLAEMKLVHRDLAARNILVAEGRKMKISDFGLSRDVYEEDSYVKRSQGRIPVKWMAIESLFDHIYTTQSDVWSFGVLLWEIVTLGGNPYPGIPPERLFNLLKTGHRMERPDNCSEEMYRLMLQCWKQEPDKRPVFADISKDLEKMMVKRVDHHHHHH

B-Raf = target: T2, B-Raf (Homo sapiens, UniProt P15056); test: AlphaScreen kinase assay, B-Raf; details: read-out: IC50, activity toward kinase B-Raf
T2 construct: purchased Upstate Biotechnology

FGFR1 = target: T3, FGFR1 (Homo sapiens, UniProt P11362, C488A/C584S); test: AlphaScreen kinase assay, FGFR1; details: read-out: IC50, activity toward kinase FGFR
T3 construct: P1351.pET N6 BI-PTP FGFR A458-E765-X C488A, C584S; made in house; host or cells: E. coli (PTP1B co-expressed)

Kdr = target: T4, Kdr (Homo sapiens, UniProt P35968); test: Z'-Lyte FRET kinase assay (Invitrogen), Kdr; details: read-out: IC50, activity toward kinase Kdr
T4 construct: purchased Invitrogen (assay run by Invitrogen)

B-Raf V600E = target: T5, B-Raf V600E (Homo sapiens, UniProt P15056, V600E); test: AlphaScreen kinase assay, B-Raf V600E; details: read-out: IC50, activity toward kinase B-Raf V600E
T5 construct: P4254. pFastBacBD-CDC37 BRAF D437-K722-X, V600E; His6 with pFastBac HT leader (TEV site) (N); made in house; host or cells: Sf9 (baculovirus; chaperone CDC37 co-expressed)

Btk = target: T6, Btk (Homo sapiens, UniProt Q06187); test: Z'-Lyte FRET kinase assay (Invitrogen), Btk; details: read-out: IC50, activity toward kinase Btk
T6 construct: purchased Invitrogen (assay run by Invitrogen)

Measured: IC50

T3 sequence (P11362 458-765 C488A/C584S): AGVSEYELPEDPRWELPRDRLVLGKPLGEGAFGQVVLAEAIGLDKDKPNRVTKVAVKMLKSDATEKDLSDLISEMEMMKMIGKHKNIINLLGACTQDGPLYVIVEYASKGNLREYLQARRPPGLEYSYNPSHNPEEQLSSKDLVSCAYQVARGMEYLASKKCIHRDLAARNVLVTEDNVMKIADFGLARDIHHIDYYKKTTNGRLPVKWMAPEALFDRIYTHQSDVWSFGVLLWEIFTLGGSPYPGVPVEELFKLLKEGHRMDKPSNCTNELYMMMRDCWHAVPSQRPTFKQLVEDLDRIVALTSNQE
T4 sequence (P35968 20-1356): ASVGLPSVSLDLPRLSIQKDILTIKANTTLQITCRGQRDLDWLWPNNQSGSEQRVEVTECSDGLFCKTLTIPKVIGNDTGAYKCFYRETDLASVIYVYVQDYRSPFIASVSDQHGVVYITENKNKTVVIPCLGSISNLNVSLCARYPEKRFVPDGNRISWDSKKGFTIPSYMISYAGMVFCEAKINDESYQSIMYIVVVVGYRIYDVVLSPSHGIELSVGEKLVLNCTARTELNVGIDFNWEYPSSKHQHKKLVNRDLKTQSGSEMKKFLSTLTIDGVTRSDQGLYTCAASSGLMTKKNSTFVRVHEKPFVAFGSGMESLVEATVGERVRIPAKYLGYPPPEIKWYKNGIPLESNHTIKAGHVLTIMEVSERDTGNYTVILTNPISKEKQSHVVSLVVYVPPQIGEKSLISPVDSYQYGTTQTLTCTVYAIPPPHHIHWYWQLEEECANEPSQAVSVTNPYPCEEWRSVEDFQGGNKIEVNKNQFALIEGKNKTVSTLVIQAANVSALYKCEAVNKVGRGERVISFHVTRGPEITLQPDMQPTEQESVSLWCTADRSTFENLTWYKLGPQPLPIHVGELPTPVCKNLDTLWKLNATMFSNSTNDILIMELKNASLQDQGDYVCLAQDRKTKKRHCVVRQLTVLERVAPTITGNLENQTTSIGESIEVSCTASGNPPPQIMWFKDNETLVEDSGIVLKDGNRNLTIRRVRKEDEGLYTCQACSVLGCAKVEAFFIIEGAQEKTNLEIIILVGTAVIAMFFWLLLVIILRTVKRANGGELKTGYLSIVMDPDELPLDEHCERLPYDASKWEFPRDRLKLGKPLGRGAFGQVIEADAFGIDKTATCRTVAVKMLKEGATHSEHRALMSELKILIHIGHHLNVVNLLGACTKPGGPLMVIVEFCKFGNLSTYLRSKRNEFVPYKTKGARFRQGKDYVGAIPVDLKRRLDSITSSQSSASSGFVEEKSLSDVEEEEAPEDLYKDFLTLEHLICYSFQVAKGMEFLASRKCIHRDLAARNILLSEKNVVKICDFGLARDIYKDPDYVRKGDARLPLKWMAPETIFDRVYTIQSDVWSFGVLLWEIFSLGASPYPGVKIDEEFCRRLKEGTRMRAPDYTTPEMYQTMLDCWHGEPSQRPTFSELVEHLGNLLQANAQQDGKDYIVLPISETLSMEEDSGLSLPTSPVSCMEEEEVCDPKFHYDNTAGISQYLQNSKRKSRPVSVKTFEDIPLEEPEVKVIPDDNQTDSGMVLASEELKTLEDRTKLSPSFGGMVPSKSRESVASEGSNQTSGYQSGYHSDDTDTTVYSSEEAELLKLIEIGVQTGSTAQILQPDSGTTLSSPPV
T5 sequence (P15056 with tags, fused parts or gaps V600E): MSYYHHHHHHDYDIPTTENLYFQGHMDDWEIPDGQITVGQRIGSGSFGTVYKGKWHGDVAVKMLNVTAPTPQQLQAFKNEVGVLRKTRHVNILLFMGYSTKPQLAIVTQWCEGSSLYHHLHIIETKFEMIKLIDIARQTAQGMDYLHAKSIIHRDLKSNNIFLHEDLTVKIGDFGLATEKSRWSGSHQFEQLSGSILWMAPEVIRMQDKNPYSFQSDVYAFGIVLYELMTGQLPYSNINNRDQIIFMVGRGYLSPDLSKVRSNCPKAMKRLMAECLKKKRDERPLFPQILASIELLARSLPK
T6 sequence (Q06187 whole entry): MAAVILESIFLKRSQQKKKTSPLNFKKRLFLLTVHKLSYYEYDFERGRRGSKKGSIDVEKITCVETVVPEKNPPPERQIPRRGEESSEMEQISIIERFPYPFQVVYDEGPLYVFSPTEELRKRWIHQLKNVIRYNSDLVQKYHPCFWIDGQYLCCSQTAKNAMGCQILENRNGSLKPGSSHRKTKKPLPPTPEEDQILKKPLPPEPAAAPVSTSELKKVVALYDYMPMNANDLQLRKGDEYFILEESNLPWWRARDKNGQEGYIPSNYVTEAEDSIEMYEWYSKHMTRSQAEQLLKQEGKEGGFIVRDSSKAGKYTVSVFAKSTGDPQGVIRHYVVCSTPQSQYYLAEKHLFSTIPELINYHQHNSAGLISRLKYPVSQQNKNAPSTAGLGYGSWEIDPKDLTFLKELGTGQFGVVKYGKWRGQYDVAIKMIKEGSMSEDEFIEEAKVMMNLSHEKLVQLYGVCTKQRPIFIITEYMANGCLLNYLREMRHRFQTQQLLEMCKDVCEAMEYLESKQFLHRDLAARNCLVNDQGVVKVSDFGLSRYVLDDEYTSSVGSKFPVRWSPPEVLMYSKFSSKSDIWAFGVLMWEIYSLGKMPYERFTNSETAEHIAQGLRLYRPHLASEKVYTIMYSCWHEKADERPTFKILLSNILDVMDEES
T2 sequence (P15056 whole entry): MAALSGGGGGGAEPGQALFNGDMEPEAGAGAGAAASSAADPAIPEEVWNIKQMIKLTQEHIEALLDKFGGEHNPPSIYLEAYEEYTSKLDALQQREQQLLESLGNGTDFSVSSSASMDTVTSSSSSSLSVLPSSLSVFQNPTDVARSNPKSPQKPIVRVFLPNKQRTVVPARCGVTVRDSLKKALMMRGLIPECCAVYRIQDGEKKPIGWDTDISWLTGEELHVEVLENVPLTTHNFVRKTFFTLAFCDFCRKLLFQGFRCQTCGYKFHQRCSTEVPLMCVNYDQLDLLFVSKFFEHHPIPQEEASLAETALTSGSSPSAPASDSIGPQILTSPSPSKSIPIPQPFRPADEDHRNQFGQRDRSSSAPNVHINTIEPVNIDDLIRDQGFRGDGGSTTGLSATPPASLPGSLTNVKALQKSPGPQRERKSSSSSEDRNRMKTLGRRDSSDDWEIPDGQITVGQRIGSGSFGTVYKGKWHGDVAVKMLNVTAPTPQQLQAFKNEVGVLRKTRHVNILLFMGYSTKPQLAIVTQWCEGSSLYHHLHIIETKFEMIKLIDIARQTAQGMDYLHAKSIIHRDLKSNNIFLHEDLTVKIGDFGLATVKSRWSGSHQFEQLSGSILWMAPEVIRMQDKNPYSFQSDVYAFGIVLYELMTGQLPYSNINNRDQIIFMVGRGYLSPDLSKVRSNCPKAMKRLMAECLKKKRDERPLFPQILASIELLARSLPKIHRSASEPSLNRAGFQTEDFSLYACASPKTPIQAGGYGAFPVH

Nc1cccc(-c2cnc3[nH]cc(C(=O)c4cccc(O)c4)c3c2)c1 [Compound P-0003]
not listed: Btk
≤ 10 µM: all other assays above

O=C(c1cccc(O)c1)c1c[nH]c2ncc(-c3cccs3)cc12 [Compound P-0196]
not listed: Btk
≤ 10 µM: all other assays above

OCCOc1ccc(F)c(Cc2c[nH]c3ncc(-c4cccnc4)cc23)c1F [Compound P-1394, 2-[2,4-Difluoro-3-(5-pyridin-3-yl-1H-pyrrolo[2,3-b]pyridin-3-ylmethyl)-phenoxy]-ethanol]
≤ 10 µM: FGFR1 | Kdr | B-Raf V600E

CCCCNC(=O)Nc1ccc(F)c(C(=O)c2c[nH]c3ncc(-c4cccnc4)cc23)c1F [Compound P-1318, 1-Butyl-3-[2,4-difluoro-3-(5-pyridin-3-yl-1H-pyrrolo[2,3-b]pyridine-3-carbonyl)-phenyl]-urea]
≤ 10 µM: B-Raf | FGFR1 | Kdr | B-Raf V600E

Nc1cccc(-c2cnc3[nH]cc(C(=O)c4cc(O)ccc4F)c3c2)c1 [Compound P-0002]
≤ 10 µM: Ret | B-Raf | FGFR1 | B-Raf V600E

CCCC(=O)Nc1ccc(F)c(Cc2c[nH]c3ncc(-c4cccnc4)cc23)c1F [Compound P-1280]
≤ 10 µM: B-Raf | FGFR1 | Kdr | B-Raf V600E

Nc1cccc(-c2cnc3[nH]cc(C(=O)c4cccc(O)c4F)c3c2)c1 [Compound P-0004, [5-(3-amino-phenyl)-1H-pyrrolo[2,3-b]pyridin-3-yl]-(2-fluoro-3-hydroxy-phenyl)methanone]
≤ 10 µM: Ret | B-Raf | FGFR1 | B-Raf V600E

Oc1ccc(F)c(C(O)c2c[nH]c3ncc(-c4cccnc4)cc23)c1F (stereo not shown) [Compound P-0009, 2,4-difluoro-3-[hydroxy-(5-pyridin-3-yl-1H-pyrrolo[2,3-b]pyridin-3-yl)-methyl]-phenol]
≤ 10 µM: all assays above

Cc1c(O)cccc1C(=O)c1c[nH]c2ncc(-c3cccs3)cc12 [Compound P-0114, (3-Hydroxy-2-methyl-phenyl)-(5-thiophen-2-yl-1H-pyrrolo[2,3b]pyridin-3-yl)-methanone]
not listed: Btk
≤ 10 µM: all other assays above

O=C(Nc1ccc(Cc2c[nH]c3ncccc23)cc1)Nc1cccc(C(F)(F)F)c1 [Compound P-0262, 1-[4-(1H-Pyrrolo[2,3-b]pyridin-3-ylmethyl)-phenyl]-3-(3-trifluoromethyl-phenyl)-urea]
not listed: Btk
≤ 10 µM: all other assays above

Cc1c(O)cccc1C(=O)c1c[nH]c2ncc(-c3cccnc3)cc12 [Compound P-0006, (3-Hydroxy-2-methyl-phenyl)-(5-pyridin-3-yl-1H-pyrrolo[2,3b]pyridin-3-yl)-methanone]
≤ 10 µM: all assays above

Fc1cc(F)cc(-c2ccnc3[nH]cc(Sc4ccccn4)c23)c1 [Compound P-0106]
≤ 10 µM: Kdr

O=C(c1cccc(O)c1F)c1c[nH]c2ncc(-c3cccs3)cc12 [Compound P-0521, (2-fluoro-3-hydroxy-phenyl)-(5-thiophen-2-yl-1H-pyrrolo[2,3-b]pyridin-3-yl)-methanone]
not listed: Btk
≤ 10 µM: all other assays above

O=C(c1cc(O)ccc1F)c1c[nH]c2ncc(-c3cccs3)cc12 [Compound P-0032]
not listed: Btk
≤ 10 µM: all other assays above

Oc1ccc(F)c(Cc2c[nH]c3ncc(-c4cccnc4)cc23)c1F [Compound P-0078, 2,4-difluoro-3-(5-pyridin-3-yl-1H-pyrrolo[2,3-b]pyridin-3-ylmethyl)-phenol]
not listed: Btk
≤ 10 µM: all other assays above

Cc1ccc(S(=O)(=O)NCc2c[nH]c3ncccc23)cc1 [Compound P-0058]
≤ 10 µM: Ret | FGFR1

CS(=O)(=O)c1cccc(-c2cnc3[nH]cc(C(=O)c4cc(O)ccc4F)c3c2)c1 [Compound P-0008, (2-Fluoro-5-hydroxy-phenyl)-[5-(3-methanesulfonyl-phenyl)-1H-pyrrolo[2,3-b]pyridin-3-yl]-methanone]
≤ 10 µM: Ret | B-Raf | FGFR1 | B-Raf V600E

CC(=O)Nc1cccc(-c2cnc3[nH]cc(C(=O)c4cccc(O)c4F)c3c2)c1 [Compound P-0035, N-{3-[3-(2-Fluoro-3-hydroxy-benzoyl)-1H-pyrrolo[2,3-b]pyridin-5-yl]-phenyl}-acetamide]
≤ 10 µM: Ret | B-Raf | FGFR1 | B-Raf V600E

Cn1cc(C(F)(F)F)c(-c2ccc(S(=O)(=O)NCc3c[nH]c4ncccc34)s2)n1 [Compound P-0041]
≤ 10 µM: all assays above

CS(=O)(=O)c1cccc(-c2cnc3[nH]cc(C(=O)c4cccc(O)c4F)c3c2)c1 [Compound P-0026, (2-Fluoro-3-hydroxy-phenyl)-[5-(3-methanesulfonylphenyl)1H-pyrrolo[2,3-b]pyridin-3-yl]-methanone]
not listed: Kdr
≤ 10 µM: all other assays above

CCCS(=O)(=O)Nc1ccc(F)c(C(=O)c2c[nH]c3ncc(OC)cc23)c1F [Compound P-0806, Propane-1-sulfonic acid [2,4-difluoro-3-(5-methoxy-1H-pyrrolo[2,3-b]pyridine-3-carbonyl)-phenyl]-amide]
not listed: Ret
≤ 10 µM: all other assays above

CC(=O)Nc1cccc(-c2cnc3[nH]cc(C(=O)c4cc(O)ccc4F)c3c2)c1 [Compound P-0001]
not listed: Btk
≤ 10 µM: all other assays above

O=C(c1cccc(O)c1)c1c[nH]c2nccc(-c3cc(F)cc(F)c3)c12 [Compound P-0039]
≤ 10 µM: Ret | FGFR1 | Kdr | B-Raf V600E

COc1cc(OC)cc(C(=O)c2c[nH]c3ncc(-c4cccc(NS(C)(=O)=O)c4)cc23)c1 [Compound P-1426, N-{3-[3-(3,5-Dimethoxy-benzoyl)-1H-pyrrolo[2,3-b]pyridin-5-yl]-phenyl}-methanesulfonamide]
≤ 10 µM: FGFR1 | Btk | Kdr | B-Raf V600E

CS(=O)(=O)Nc1cccc(-c2cnc3[nH]cc(C(=O)c4cccc(O)c4F)c3c2)c1 [Compound P-0038, N-{3-[3-(2-Fluoro-3-hydroxy-benzoyl)-1H-pyrrolo[2,3-b]pyridin-5-yl]-phenyl}-methanesulfonamide]
≤ 10 µM: Ret | B-Raf | FGFR1 | B-Raf V600E

COc1cccc(C(=O)c2c[nH]c3ncc(-c4cccc(NC(C)=O)c4)cc23)c1F [Compound P-1336, N-{3-[3-(2-Fluoro-3-methoxy-benzoyl)-1H-pyrrolo[2,3-b]pyridin-5-yl]-phenyl}-acetamide]
≤ 10 µM: B-Raf | FGFR1 | Btk | B-Raf V600E

O=C(c1cccc(O)c1)c1c[nH]c2ncc(Nc3ccccc3)cc12 [Compound P-0025]
≤ 10 µM: all assays above

NC(=O)c1cccc(-c2cnc3[nH]cc(C(=O)c4cccc(O)c4F)c3c2)c1 [Compound P-0034, 3-[3-(2-Fluoro-3-hydroxy-benzoyl)-1H-pyrrolo[2,3-b]pyridin-5-yl]benzamide]
≤ 10 µM: Ret | B-Raf | FGFR1 | B-Raf V600E

— patent US8415469B2, “Compounds and methods for kinase modulation, and indications therefor” (Plexxikon Inc., priority 2005, dated 2013)
